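48-hour exposure; five concentrations; linearly interpolated endpoints. TGI: concentration producing complete growth inhibition.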
Experiments:
Assay in all cases: NCI anticancer screen, dose series, 48 h
786-0 renal = test system: 786-0 renal
A549 NSCLC = test system: A549 NSCLC
ACHN renal = test system: ACHN renal
CCRF-CEM leukemia = test system: CCRF-CEM leukemia
COLO 205 colon = test system: COLO 205 colon
EKVX NSCLC = test system: EKVX NSCLC
HCC-2998 colon = test system: HCC-2998 colon
HCT-116 colon = test system: HCT-116 colon
HCT-15 colon = test system: HCT-15 colon
HL-60(TB) leukemia = test system: HL-60(TB) leukemia
HOP-62 NSCLC = test system: HOP-62 NSCLC
HOP-92 NSCLC = test system: HOP-92 NSCLC
HS 578T breast = test system: HS 578T breast
HT29 colon = test system: HT29 colon
IGROV1 ovarian = test system: IGROV1 ovarian
K-562 leukemia = test system: K-562 leukemia
KM12 colon = test system: KM12 colon
LOX IMVI melanoma = test system: LOX IMVI melanoma
MALME-3M melanoma = test system: MALME-3M melanoma
MCF7 breast = test system: MCF7 breast
MDA-MB-435 = test system: MDA-MB-435
MDA-N = test system: MDA-N
MOLT-4 leukemia = test system: MOLT-4 leukemia
NCI-H226 lung = test system: NCI-H226 lung
NCI-H23 lung = test system: NCI-H23 lung
NCI-H460 lung = test system: NCI-H460 lung
NCI/ADR-RES ovarian = test system: NCI/ADR-RES ovarian
OVCAR-3 ovarian = test system: OVCAR-3 ovarian
OVCAR-4 ovarian = test system: OVCAR-4 ovarian
OVCAR-8 ovarian = test system: OVCAR-8 ovarian
PC-3 prostate = test system: PC-3 prostate
RPMI-8226 leukemia = test system: RPMI-8226 leukemia
RXF 393 renal = test system: RXF 393 renal
SF-268 CNS = test system: SF-268 CNS
SF-295 CNS = test system: SF-295 CNS
SF-539 CNS = test system: SF-539 CNS
SK-MEL-2 melanoma = test system: SK-MEL-2 melanoma
SK-MEL-28 melanoma = test system: SK-MEL-28 melanoma
SK-MEL-5 melanoma = test system: SK-MEL-5 melanoma
SK-OV-3 ovarian = test system: SK-OV-3 ovarian
SN12C renal = test system: SN12C renal
SNB-19 CNS = test system: SNB-19 CNS
SNB-75 CNS = test system: SNB-75 CNS
SR leukemia = test system: SR leukemia
SW-620 colon = test system: SW-620 colon
T-47D breast = test system: T-47D breast
TK-10 renal = test system: TK-10 renal
U251 CNS = test system: U251 CNS
UACC-62 melanoma = test system: UACC-62 melanoma
UO-31 renal = test system: UO-31 renal

Measured: TGI

N#Cc1cc(C#N)c(Cl)nc1N
> 10 µM: 786-0 renal | A549 NSCLC | ACHN renal | CCRF-CEM leukemia | COLO 205 colon | EKVX NSCLC | HCC-2998 colon | HCT-116 colon | HCT-15 colon | HL-60(TB) leukemia | HOP-62 NSCLC | HOP-92 NSCLC | HS 578T breast | HT29 colon | IGROV1 ovarian | K-562 leukemia | KM12 colon | LOX IMVI melanoma | MALME-3M melanoma | MCF7 breast | MDA-MB-435 | MDA-N | MOLT-4 leukemia | NCI-H226 lung | NCI-H23 lung | NCI-H460 lung | NCI/ADR-RES ovarian | OVCAR-3 ovarian | OVCAR-4 ovarian | OVCAR-8 ovarian | PC-3 prostate | RPMI-8226 leukemia | RXF 393 renal | SF-268 CNS | SF-295 CNS | SF-539 CNS | SK-MEL-2 melanoma | SK-MEL-28 melanoma | SK-MEL-5 melanoma | SK-OV-3 ovarian | SN12C renal | SNB-19 CNS | SNB-75 CNS | SR leukemia | SW-620 colon | T-47D breast | TK-10 renal | U251 CNS | UACC-62 melanoma | UO-31 renal

— PubChem BioAssay (NCI)
